Measured values taken from US20070072222A1, “FABP4 as biomarker for toxic effect” (priority 2005, published 2007).

Legend:
mice = experiment: Oral repeat-dose toxicity study in mice; format: in vivo, mouse (CD-1, C57BL6)
Description: (§1) CD-1 mice (Charles River Laboratories, UK): • treatment with 3-{1-[2-(2-CHLORO-PHENYL)-5-METHYL-OXAZOL-4-YLMETHYL]-1H-INDOL-5-YL}-2-ETHOXY-PROPIONIC ACID for 1 day; doses were 0, 0.2 and 3 mg/kg • treatment with 3-{1-[2-(2-CHLORO-PHENYL)-5-METHYL-OXAZOL-4-YLMETHYL]-1H-INDOL-5-YL}-2-ETHOXY-PROPIONIC ACID for 10 days; doses were 0, 0.2 and 3 mg/kg • treatment with 3-{1-[2-(2-CHLORO-PHENYL)-5-METHYL-OXAZOL-4-YLMETHYL]-1H-INDOL-5-YL}-2-ETHOXY-PROPIONIC ACID for 14 days; doses were 0, 0.6 and 15 mg/kg
(§2) C57BL6 mice (RCC Ltd, Füllinsdorf): • treatment with 3-{1-[2-(2-CHLORO-PHENYL)-5-METHYL-OXAZOL-4-YLMETHYL]-1H-INDOL-5-YL}-2-ETHOXY-PROPIONIC ACID for 1 day; doses were 0, 0.2 and 3 mg/kg • treatment with 3-{1-[2-(2-CHLORO-PHENYL)-5-METHYL-OXAZOL-4-YLMETHYL]-1H-INDOL-5-YL}-2-ETHOXY-PROPIONIC ACID for 10 days; doses were 0, 0.2 and 3 mg/kg
(§3) Cynomolgus Monkey (macaca fascicularis): • treatment with 3-{1-[2-(2-CHLORO-PHENYL)-5-METHYL-OXAZOL-4-YLMETHYL]-1H-INDOL-5-YL}-2-ETHOXY-PROPIONIC ACID for 28 days; doses were 0, 0.015, 0.09 and 0.31 mg/kg • Treatment with 3-{1-[2-(2-CHLORO-PHENYL)-5-METHYL-OXAZOL-4-YLMETHYL]-1H-INDOL-5-YL}-2-ETHOXY-PROPIONIC ACID for 16 weeks; doses were […], 0.1, 0.3 and 1 mg/kg 3-{1-[2-(2-CHLORO-PHENYL)-5-METHYL-OXAZOL-4-YLMETHYL]-1H-INDOL-5-YL}-2-ETHOXY-PROPIONIC ACID was dissolved in 20% propylene glycol/phosphate buffer, pH8. Treated animals were dosed orally (p.o.).

[1] = test system: rat tissue (liver, heart, skeletal muscle, Brown adipose tissue); experiment: Oral repeat-dose toxicity study in rats; format: in vivo, Wistar rats; settings: at similar exposure levels as in mice
Description: Wistar rats (RCC Ltd, Füllinsdorf): • treatment with 3-{1-[2-(2-CHLORO-PHENYL)-5-METHYL-OXAZOL-4-YLMETHYL]-1H-INDOL-5-YL}-2-ETHOXY-PROPIONIC ACID for 14 days; doses were 0, 0.3 and 1.2 mg/kg • Treatment with 3-{1-[2-(2-CHLORO-PHENYL)-5-METHYL-OXAZOL-4-YLMETHYL]-1H-INDOL-5-YL}-2-ETHOXY-PROPIONIC ACID for 28 days; doses were 0, 0.1, 0.5 and 2.5 mg/kg
as §3

[2] = test system: monkey tissue (liver, heart, skeletal muscle, Brown adipose tissue); experiment: Oral repeat-dose toxicity study in monkeys; format: in vivo, Cynomolgus Monkey (macaca fascicularis); settings: at similar exposure levels as in mice
Description: as §3

[3] = test system: mouse FABP4 (SEQ. ID NO: 3); experiment: FABP4 gene expression in mouse liver (Affymetrix microarray MEA 230 plus); format: in vivo, mouse (CD1, C57Bl/6); settings: mice, after p.o. administration
Description: as §1, §2
(§4) The expression levels of FABP4 of the mice (SEQ. ID NO: 3) were measured using Affymetrix microarrays (MEA 230 plus, probe sets: 1417023_a_at, 1424155_at, 1425809_at, 1451263_a_at) or Applied Biosystems Assays on Demand (assay ID: Mm00445880_ml). The expression levels of FABP4 of the rat (SEQ. ID NO: 2) were measured using Affymetrix microarrays (RG U34A, probe set: rc_AI169612_at) or Applied Biosystems Assays on Demand (assay ID: Rn00670361_ml). The expression levels of FABP4 of the monkeys were not measured.

[4] = test system: rat FABP4 (SEQ. ID NO: 2); experiment: FABP4 gene expression in rat liver (Affymetrix microarray RG U34A); format: in vivo, Wistar rats; settings: for FABP4 expression relative to time matched vehicle control, Affymetrix result (Fold change): rat liver
Description: as §4
(§5) Wistar rats (RCC Ltd, Füllinsdorf): • treatment with INDOMETHACIN (1-(4-Chlorobenzoyl)-5-methoxy-2-methyl-3-indoleacetic acid, Sigma I7378), single dose p.o. (orally); doses were 0, 2, 10 and 20 mg/kg • Treatment with INDOMETHACIN (1-(4-Chlorobenzoyl)-5-methoxy-2-methyl-3-indoleacetic acid, Sigma I7378) for 7 days; doses were 0, 2, and 5 mg/kg/day INDOMETHACIN was dissolved in corn oil. Treated animals were dosed orally (p.o.). The expression levels of FABP4 of the rat (SEQ. ID NO: 2) were measured using Affymetrix microarrays (RG U34A, probe sets: rc_AI169612_at) or Applied Biosystems Assays on Demand (assay ID: Rn00670361_ml).

[5] = test system: rat FABP4 (SEQ. ID NO: 2); experiment: FABP4 mRNA expression in rat liver by PCR (Applied Biosystems Assays on Demand); format: in vivo, Wistar rats
Description: as §4, §5

livers = experiment: Liver histopathology and clinical biochemistry in indomethacin treated rats; format: in vivo, Wistar rats
Description: as §5

[6] = single dose 20 mg/kg, necropsy 24 hours

Compound: CCOC(Cc1ccc2c(ccn2Cc2nc(-c3ccccc3Cl)oc2C)c1)C(=O)O (stereo not drawn) [3-{1-[2-(2-CHLORO-PHENYL)-5-METHYL-OXAZOL-4-YLMETHYL]-1H-INDOL-5-YL}-2-ETHOXY-PROPIONIC ACID]
- Dose at which mortality occurred (mice; mice, p.o.): ≥ 0.6 mg/kg/day
- Exposure at which dose-dependent severe toxicity was found (mice; mouse, in vivo, po): ≥ 50 × anticipated human exposure
- Findings in other tissues (mice; mouse, in vivo, po): degeneration of heart and skeletal muscle, and brown adipose tissue
- Toxicity in tissue (liver, heart, skeletal muscle, brown adipose tissue) [1]: not observed
- Toxicity in tissue (liver, heart, skeletal muscle, brown adipose tissue) [2]: not observed
- Expression of fatty acid binding protein 4 in liver [3]: strong induction
- Expression of FABP4 in liver ([4]; rat, in vivo): not induced

Compound: ClC(Cl)(Cl)Cl [carbon tetrachloride]
- Expression of FABP4 in liver ([4]; rats, after administration): an induction of the expression of FABP4 was also found

Compound: COc1ccc2c(c1)c(CC(=O)O)c(C)n2C(=O)c1ccc(Cl)cc1 [indomethacin, 1-(4-Chlorobenzoyl)-5-methoxy-2-methyl-3-indoleacetic acid]
- Expression of FABP4 in liver ([4]; Wistar, rat, in vivo): an induction of the expression of FABP4 was also found
- FABP4 expression relative to time matched vehicle control, Affymetrix result (Fold change) ([4]; 2 mg/kg/day for 7 days): 1 Fold change
- FABP4 expression relative to time matched vehicle control, Affymetrix result (Fold change) ([4]; 5 mg/kg/day for 7 days): 79.59 Fold change
- FABP4 expression relative to time matched vehicle control, Affymetrix result (Fold change) ([4]; single dose 2 mg/kg, necropsy 6 hours): 1 Fold change
- FABP4 expression relative to time matched vehicle control, Affymetrix result (Fold change) ([4]; single dose 2 mg/kg, necropsy 24 hours): 1 Fold change
- FABP4 expression relative to time matched vehicle control, Affymetrix result (Fold change) ([4]; single dose 10 mg/kg, necropsy 6 hours): 1 Fold change
- FABP4 expression relative to time matched vehicle control, Affymetrix result (Fold change) ([4]; single dose 10 mg/kg, necropsy 24 hours): 4.13 Fold change
- FABP4 expression relative to time matched vehicle control, Affymetrix result (Fold change) ([4]; single dose 20 mg/kg, necropsy 6 hours): 1 Fold change
- FABP4 expression relative to time matched vehicle control, Affymetrix result (Fold change) [4, 6]: 8.41 Fold change
- Expression of fatty acid binding protein 4 in liver (Affymetrix gene arrays) ([4]; rats, 24 hours after single dose 10 or 20 mg/kg, and 7 consecutive days 5 mg/kg/day): strong induction
- FABP4 expression relative to time matched vehicle control, PCR result (Fold change) ([5]; 5 mg/kg/day for 7 days): 26.92 Fold change
- FABP4 expression relative to time matched vehicle control, PCR result (Fold change) [5, 6]: 13.68 Fold change
- Clinical biochemistry parameters (livers; especially 10 and 20 mg/kg single dose and 5 mg/kg/day repeated treatment): changes of different clinical biochemistry parameters indicative of liver changes
- Liver histopathology (livers; p.o., dose dependent): Slight histopathological alterations (hepatocellular hypertrophy)
- Hepatocellular glycogen deposition (livers; single administration of 10 or 20 mg/kg or 5 mg/kg/day for 7 consecutive days): Decreased hepatocellular glycogen deposition

Compound: lipopolysaccharide
- Expression of FABP4 in liver ([4]; rats, after administration): an induction of the expression of FABP4 was also found
